According to PMC8311653, “Design, Synthesis, In Vitro and In Vivo Characterization of Selective NKCC1 Inhibitors for the Treatment of Core Symptoms in Down Syndrome” (Journal of Medicinal Chemistry, 2021):

Tests used:
[1] = molecular target: T1, NKCC2 (Homo sapiens, UniProt Q13621); design: method as in PMID 32818158; details: 10 μM; cited from earlier work
T1 construct: host or cells: HEK293
T1 sequence (Q13621 1-1099): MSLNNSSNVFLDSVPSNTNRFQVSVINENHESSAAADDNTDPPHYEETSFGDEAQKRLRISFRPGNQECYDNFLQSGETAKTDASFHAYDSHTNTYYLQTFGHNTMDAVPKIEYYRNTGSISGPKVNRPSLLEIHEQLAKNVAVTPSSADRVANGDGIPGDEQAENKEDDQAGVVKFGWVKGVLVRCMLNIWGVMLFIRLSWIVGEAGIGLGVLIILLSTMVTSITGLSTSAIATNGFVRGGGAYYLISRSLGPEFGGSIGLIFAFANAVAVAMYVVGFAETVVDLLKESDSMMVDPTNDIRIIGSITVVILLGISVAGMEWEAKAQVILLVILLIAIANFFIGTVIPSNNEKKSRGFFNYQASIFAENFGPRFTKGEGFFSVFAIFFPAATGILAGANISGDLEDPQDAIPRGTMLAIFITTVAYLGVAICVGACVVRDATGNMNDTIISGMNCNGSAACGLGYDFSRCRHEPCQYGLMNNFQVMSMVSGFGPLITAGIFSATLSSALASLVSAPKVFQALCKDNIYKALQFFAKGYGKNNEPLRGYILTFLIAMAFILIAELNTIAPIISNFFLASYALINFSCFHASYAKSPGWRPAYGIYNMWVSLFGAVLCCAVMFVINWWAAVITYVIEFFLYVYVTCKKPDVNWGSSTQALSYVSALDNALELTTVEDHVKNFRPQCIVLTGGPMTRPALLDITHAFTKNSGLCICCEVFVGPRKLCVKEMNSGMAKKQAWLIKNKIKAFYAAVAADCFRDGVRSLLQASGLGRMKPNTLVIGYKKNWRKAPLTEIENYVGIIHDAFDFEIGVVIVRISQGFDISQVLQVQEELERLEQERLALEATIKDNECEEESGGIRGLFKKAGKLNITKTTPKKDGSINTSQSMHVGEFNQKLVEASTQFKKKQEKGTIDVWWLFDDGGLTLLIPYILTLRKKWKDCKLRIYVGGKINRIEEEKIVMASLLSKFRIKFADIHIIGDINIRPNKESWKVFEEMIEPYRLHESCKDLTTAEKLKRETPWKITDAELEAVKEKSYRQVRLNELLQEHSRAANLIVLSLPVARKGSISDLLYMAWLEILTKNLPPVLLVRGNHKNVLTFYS

[2] = test system: Ts65Dn mice; assay: Novel object recognition (NOR) test; format: in vivo, mouse; details: ip 0.6 mg kg-1 daily, chronic (7-21 days)
Procedure: A veterinarian was employed to maintain the health and comfort of the animals. Mice were housed in filtered cages in a temperature-controlled room with a 12:12 h dark/light cycle and with ad libitum access to water and food. All efforts were made to minimize animal suffering and use the lowest possible number of animals required to produce statistical relevant results, according to the “3Rs concept”. In this study, we used Ts65Dn mice maintained in their original genetic background[57] by crossing (more than 40 times) Ts65Dn female to C57BL/6JEi × C3SnHeSnJ (B6EiC3) F1 males (Jackson Laboratories). Ts65Dn mice were genotyped by PCR as previously described.[58] Only males were used for behavioral experiments. Ts65Dn and controls were randomly assigned to vehicle groups (2% DMSO in saline), bumetanide (Sigma, 0.6 mg kg^–1 body weight), or 40 (0.6 mg kg^–1 body weight) and treated daily for ∼21 days by intraperitoneal injection (i.p.). On the day of behavioral testing, injection was performed 1 h before the task began.
Ts65Dn male mice (8–16 weeks old) were tested after 1 week of treatment with vehicle or 40 (0.6 mg kg^–1 i.p.). The battery of tests was run over a total period of ∼14 days (four behavioral tests with the following order Open Field, NOR, T-maze, and CFC). […] The tasks were video-recorded and then analyzed manually by a blind operator.

**Q.** For CN(C)S(=O)(=O)c1cc(C(=O)O)ccc1NCCCCCCCC(F)(F)F [Compound 1, 3-(-N,N-Dimethylsulfamoyl)-4-(8,8,8-trifluorooctylamino)benzoic Acid], which “inhibition of NKCC2 in the Cl- influx assay” value [1] is on record?
**A.** did not show any significant inhibition

**Q.** Which “novel-discrimination ability in the NOR task (discrimination index)” value [2] does the source give for CN(C)S(=O)(=O)c1cc(C(=O)O)c(O)cc1NCCCCCCCC(F)(F)F [Compound 40, 5-(N,N-Dimethylsulfamoyl)-2-hydroxy-4-((8,8,8-trifluorooctyl)amino)benzoic Acid] here?
**A.** completely rescued
